{"source": "patent US10150760B2", "about": "“Compounds for use in preparing heterocyclic triazole agonists of the APJ receptor” (AMGEN INC., priority 2016, dated 2018)", "target": "human APJ receptor (Homo sapiens (Human), UniProt P35414)", "sequence (P35414 whole entry)": "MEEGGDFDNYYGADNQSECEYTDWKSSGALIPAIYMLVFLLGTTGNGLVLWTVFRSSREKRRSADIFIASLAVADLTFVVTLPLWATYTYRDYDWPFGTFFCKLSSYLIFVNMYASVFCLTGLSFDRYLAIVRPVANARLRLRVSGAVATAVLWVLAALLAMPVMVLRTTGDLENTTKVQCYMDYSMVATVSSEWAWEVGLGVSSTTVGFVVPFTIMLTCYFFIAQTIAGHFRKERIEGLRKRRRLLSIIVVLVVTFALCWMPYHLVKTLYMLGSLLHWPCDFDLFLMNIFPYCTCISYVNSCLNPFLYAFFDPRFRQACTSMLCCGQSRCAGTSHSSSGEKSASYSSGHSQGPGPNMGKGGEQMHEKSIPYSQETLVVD", "experiment": "[35S]GTPγS binding assay on membranes from CHO cells stably expressing human APJ receptor", "format": "biochemical", "settings": "read-out: Activity hAPJ SPA EC50 IP", "procedure,_shortened": "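Membranes from CHO cells stably expressing human APJ incubated with ligand, 0.2 nM [35S]GTPγS and WGA SPA beads in HEPES pH 7.5 with 5 mM MgCl2, 200 mM NaCl, 3 μM GDP, 90 min at RT. Nonspecific binding defined with 100 μM GTPγS; EC50 by non-linear regression.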"}
{"smiles": "COc1cccc(OC)c1-n1c(NS(=O)(=O)[C@@H](C)[C@H](C)c2ncc(Cl)cn2)nnc1[C@H]1CCC(=O)N1", "note": "(single isomer, unassigned) [Example 344.0, (2S,3R)-3-(5-chloropyrimidin-2-yl)-N-(4-(2,6-dimethoxyphenyl)-5-((R)-5-oxopyrrolidin-2-yl)-4H-1,2,4-triazol-3-yl)butane-2-sulfonamide or (2S,3R)-3-(5-chloropyrimidin-2-yl)-N-(4-(2,6-dimethoxyphenyl)-5-((S)-5-oxopyrrolidin-2-yl)-4H-1,2,4-triazol-3-yl)butane-2-sulfonamide]", "values": [{"measurement": "EC50", "result": 230, "unit": "nM"}]}
{"smiles": "COCC(COC)n1c(NS(=O)(=O)[C@@H](C)[C@@H](OC(C)C)c2ncc(Cl)cn2)nnc1[C@@H]1COCCO1", "note": "(single isomer, unassigned) [Example 356.0, (1S,2S)-1-(5-chloro-2-pyrimidinyl)-N-(4-(1,3-dimethoxy-2-propanyl)-5-((2R)-1,4-dioxan-2-yl)-4H-1,2,4-triazol-3-yl)-1-(2-propanyloxy)-2-propanesulfonamide or (1S,2S)-1-(5-chloro-2-pyrimidinyl)-N-(4-(1,3-dimethoxy-2-propanyl)-5-((2S)-1,4-dioxan-2-yl)-4H-1,2,4-triazol-3-yl)-1-(2-propanyloxy)-2-propanesulfonamide]", "values": [{"measurement": "EC50", "result": 26, "unit": "nM"}]}
{"smiles": "COCC(COC)n1c(NS(=O)(=O)[C@@H](C)[C@@H](OC(C)C)c2ncc(Cl)cn2)nnc1[C@@H]1COCCO1", "note": "(single isomer, unassigned) [Example 357.0, (1S,2S)-1-(5-chloro-2-pyrimidinyl)-N-(4-(1,3-dimethoxy-2-propanyl)-5-((2R)-1,4-dioxan-2-yl)-4H-1,2,4-triazol-3-yl)-1-(2-propanyloxy)-2-propanesulfonamide or (1S,2S)-1-(5-chloro-2-pyrimidinyl)-N-(4-(1,3-dimethoxy-2-propanyl)-5-((2S)-1,4-dioxan-2-yl)-4H-1,2,4-triazol-3-yl)-1-(2-propanyloxy)-2-propanesulfonamide]", "values": [{"measurement": "EC50", "result": 280, "unit": "nM"}]}
{"smiles": "COc1ncnc(OC)c1-n1c(NS(=O)(=O)[C@@H](C)[C@H](C)c2ccc(C#N)cn2)nnc1[C@H]1CCOC1", "note": "(single isomer, unassigned) [Example 382.0, (2S,3R)-3-(5-cyano-2-pyridinyl)-N-(4-(4,6-dimethoxy-5-pyrimidinyl)-5-((3R)-tetrahydro-3-furanyl)-4H-1,2,4-triazol-3-yl)-2-butanesulfonamide or (2S,3R)-3-(5-cyano-2-pyridinyl)-N-(4-(4,6-dimethoxy-5-pyrimidinyl)-5-((3S)-tetrahydro-3-furanyl)-4H-1,2,4-triazol-3-yl)-2-butanesulfonamide]", "values": [{"measurement": "EC50", "result": 270, "unit": "nM"}]}
{"smiles": "COc1ncnc(OC)c1-n1c(NS(=O)(=O)[C@@H](C)[C@H](C)c2ccc(C#N)cn2)nnc1[C@H]1CCOC1", "note": "(single isomer, unassigned) [Example 383.0, (2S,3R)-3-(5-cyano-2-pyridinyl)-N-(4-(4,6-dimethoxy-5-pyrimidinyl)-5-((3R)-tetrahydro-3-furanyl)-4H-1,2,4-triazol-3-yl)-2-butanesulfonamide or (2S,3R)-3-(5-cyano-2-pyridinyl)-N-(4-(4,6-dimethoxy-5-pyrimidinyl)-5-((3S)-tetrahydro-3-furanyl)-4H-1,2,4-triazol-3-yl)-2-butanesulfonamide]", "values": [{"measurement": "EC50", "result": 680, "unit": "nM"}]}
{"smiles": "COc1cccc(OC)c1-n1c(NS(=O)(=O)CCc2ncc(Cl)cn2)nnc1[C@H]1CCOC1", "note": "(single isomer, unassigned) [Example 390.0]", "values": [{"measurement": "EC50", "result": 330, "unit": "nM"}]}
{"smiles": "COc1cccc(OC)c1-n1c(NS(=O)(=O)[C@@H](C)[C@H](C)c2ncc(Cl)cn2)nnc1[C@@H]1COC(C)(C)C1", "note": "(single isomer, unassigned) [Example 393.0, (2S,3R)-3-(5-chloro-2-pyrimidinyl)-N-(4-(2,6-dimethoxyphenyl)-5-((3R)-5,5-dimethyltetrahydro-3-furanyl)-4H-1,2,4-triazol-3-yl)-2-butanesulfonamide or (2S,3R)-3-(5-chloro-2-pyrimidinyl)-N-(4-(2,6-dimethoxyphenyl)-5-((3S)-5,5-dimethyltetrahydro-3-furanyl)-4H-1,2,4-triazol-3-yl)-2-butanesulfonamide]", "values": [{"measurement": "EC50", "result": 18, "unit": "nM"}]}
{"smiles": "COc1cccc(OC)c1-n1c(NS(=O)(=O)[C@@H](C)[C@H](C)c2ncc(Cl)cn2)nnc1[C@@H]1COC(C)(C)C1", "note": "(single isomer, unassigned) [Example 394.0, (2S,3R)-3-(5-chloro-2-pyrimidinyl)-N-(4-(2,6-dimethoxyphenyl)-5-((3R)-5,5-dimethyltetrahydro-3-furanyl)-4H-1,2,4-triazol-3-yl)-2-butanesulfonamide or (2S,3R)-3-(5-chloro-2-pyrimidinyl)-N-(4-(2,6-dimethoxyphenyl)-5-((3S)-5,5-dimethyltetrahydro-3-furanyl)-4H-1,2,4-triazol-3-yl)-2-butanesulfonamide]", "values": [{"measurement": "EC50", "result": 20, "unit": "nM"}]}
{"smiles": "COc1cccc(OC)c1-n1c(NS(=O)(=O)[C@@H](C)[C@H](C)c2ncc(F)cn2)nnc1[C@@H]1COC(C)(C)C1", "note": "(single isomer, unassigned) [Example 395.0, (2S,3R)-N-(4-(2,6-dimethoxyphenyl)-5-((3R)-5,5-dimethyltetrahydro-3-furanyl)-4H-1,2,4-triazol-3-yl)-3-(5-fluoro-2-pyrimidinyl)-2-butanesulfonamide or (2S,3R)-N-(4-(2,6-dimethoxyphenyl)-5-((3S)-5,5-dimethyltetrahydro-3-furanyl)-4H-1,2,4-triazol-3-yl)-3-(5-fluoro-2-pyrimidinyl)-2-butanesulfonamide]", "values": [{"measurement": "EC50", "result": 67, "unit": "nM"}]}
{"smiles": "COc1cccc(OC)c1-n1c(NS(=O)(=O)[C@@H](C)[C@H](C)c2ncc(F)cn2)nnc1[C@@H]1COC(C)(C)C1", "note": "(single isomer, unassigned) [Example 396.0, (2S,3R)-N-(4-(2,6-dimethoxyphenyl)-5-((3R)-5,5-dimethyltetrahydro-3-furanyl)-4H-1,2,4-triazol-3-yl)-3-(5-fluoro-2-pyrimidinyl)-2-butanesulfonamide or (2S,3R)-N-(4-(2,6-dimethoxyphenyl)-5-((3S)-5,5-dimethyltetrahydro-3-furanyl)-4H-1,2,4-triazol-3-yl)-3-(5-fluoro-2-pyrimidinyl)-2-butanesulfonamide]", "values": [{"measurement": "EC50", "result": 58, "unit": "nM"}]}
{"smiles": "COc1cccc(OC)c1-n1c(NS(=O)(=O)[C@@H](C)[C@H](OC)c2ncc(Cl)cn2)nnc1[C@H]1CCC(=O)N1", "note": "(single isomer, unassigned) [Example 397.0, (1R,2S)-1-(5-chloro-2-pyrimidinyl)-N-(4-(2,6-dimethoxyphenyl)-5-((2R)-5-oxo-2-pyrrolidinyl)-4H-1,2,4-triazol-3-yl)-1-methoxy-2-propanesulfonamide or (1R,2S)-1-(5-chloro-2-pyrimidinyl)-N-(4-(2,6-dimethoxyphenyl)-5-((2S)-5-oxo-2-pyrrolidinyl)-4H-1,2,4-triazol-3-yl)-1-methoxy-2-propanesulfonamide]", "values": [{"measurement": "EC50", "result": 160, "unit": "nM"}]}
{"smiles": "COc1cccc(OC)c1-n1c(NS(=O)(=O)[C@@H](C)[C@H](OC)c2ncc(Cl)cn2)nnc1[C@H]1CCC(=O)N1", "note": "(single isomer, unassigned) [Example 398.0, (1R,2S)-1-(5-chloro-2-pyrimidinyl)-N-(4-(2,6-dimethoxyphenyl)-5-((2R)-5-oxo-2-pyrrolidinyl)-4H-1,2,4-triazol-3-yl)-1-methoxy-2-propanesulfonamide or (1R,2S)-1-(5-chloro-2-pyrimidinyl)-N-(4-(2,6-dimethoxyphenyl)-5-((2S)-5-oxo-2-pyrrolidinyl)-4H-1,2,4-triazol-3-yl)-1-methoxy-2-propanesulfonamide]", "values": [{"measurement": "EC50", "result": 560, "unit": "nM"}]}
